Results reported in patent US20240034752A1, “ARTIFICIAL SHORT INTERFERING PEPTIDE FOR THE PHOSPHORYLATION SUBSTRATE OF DAPK1 AND ITS PHARMACEUTICAL APPLICATIONS” (priority 2021, published 2024).

Columns and labels:
HT22 cells = experiment: Glutamate insult test in HT22 cells, MTT assay; assay type: cell-based, Mouse; conditions: for reduced HT22 cell death: 400 nM peptide; for reduced HT22 cell death / reduced cell death: 6 mM glutamate, 24 h, MTT
Protocol: The group with 0 nM RvTAT-PKD-S205 was as a control. Cell Death rate (%)=100%×(Control OD−treatment OD)/Control OD. Data were shown as mean t SEM, (n=3), *p<0.05, **p<0.01, One-Way ANOVA followed by Multiple Comparisons versus the group with 0 nM RvTAT-PKD-S205 (Bonferroni t-test).
After 24 hours following glutamate exposure, cell cytotoxicity was determined by the MTT assay. HT22 cells, without the presence of the test agents in culture medium, were exposed separately 42 of 59 to 6 mM Glutamate salt as a control. Cell Death (%)=100%×(Control OD−treatment OD)/Control OD. Data were shown as mean±SEM, (n=3) * p<0.05, **p<0.01, One-Way ANOVA followed by Multiple Comparisons versus Glutamate Control Group (Bonferroni t-test).
The cells of HT-22 Mouse Hippocampal neuronal cell line were cultured and maintained in DMEM 10% fetal bovine serum, 100 U/ml penicillin and 100 μg/ml streptomycin. Cells were maintained at a temperature of 37° C. in 5% CO2/95% air. During agent's treatments and experimentation, HT-22 cells were seeded in 96-well plates by 6×10^3 cells/well and cultured at 37° C. in a CO2 incubator for 24 h. Afterwards, For neuroprotection assays, HT22 cells were exposure to 6 mM glutamate by removing media and adding Neurobasal Medium with present of 2% B27 (B27 (B-27™ Plus Supplement (50×)) and various concentrations of test agents for further 24 hours at 37° C. in the CO2 incubator. Cell viability was assessed by MTT assay.
Cell viability was quantitatively measured by 3-[4,5-dimethylthiazol-2-yl]-2,5-diphenyltetrazolium bromide (MTT) assay.
Water-soluble yellow dye MTT reagent (final concentration 0.5 mg/ml) was added to each well and incubated at 37° C. After 4 hours, the incubate medium was removed and 100 μl of Dimethyl Sulfoxide (DMSO) was added. After 30 min extraction at room temperature, the absorbance of the formazan solution is determined spectrophotometrically at 570 nm. MTT absorbance data were converted to reflect proportional cell viability relative to both the untreated and treated controls, wherein the untreated control was considered as 100% viability.

[1] = tested on: rat primary cortical neurons; experiment: Oxygen-glucose deprivation (OGD)/reperfusion in primary cortical neuronal cultures, MTT assay; assay type: cell-based, Sprague Dawley rat
Protocol: (§1) To induce OGD, EBSS containing 20 mM pH7.2 Sodium dithionite (Na2S2O4) solution with test agents were transiently exposed for 1.5 hrs, afterwards, for reperfusion, OGD culture medium was replaced with normal neurobasal media. The culture cells were further incubated for 20 hours, and cell cytotoxicity was assessed using the MTT assay. Non-OGD treated cell culture was as a control taken as 100% viability, Cell Death rate (%)=100%×(Control OD−treatment OD)/Control OD. Data were shown as mean±SEM, (n=3) * p<0.05, One-Way ANOVA followed by Multiple Comparisons versus OGD CTRL Group (Bonferroni t-test).
as §1, with “peptides” for “agents”, “show” for “shown”, “(n=3)) ** p<0.01, *** p<0.005;” for “(n=3) * p<0.05,”
Primary cultures of mixed cortical cell cultures containing both neurons and glia were prepared from embryonic day 15-18 Sprague Dawley rat as described previously [Wenxiang Fan, 50 of 59 Xiang Li, Liangliang Huang, Shucheng He, Zhicheng Xie, Yuxin Fu, Weirong Fang, Yunman Li S-oxiracetam ameliorates ischemic stroke induced neuronal apoptosis through up-regulating α7nAChR and PI3K/Akt/GSK3β signal pathway in rats Neurochemistry International Volume 115, May 2018, Pages 50-60 https://doi.org/10.1016/j.Neuint.2018.01.008]. […]
Oxygen glucose deprivation were performed according to a previously method [J. Huang, N. D. Kodithuwakku, W. He. […] Finally, Cell viability was determined by MTT assay (same as 1.2) […]

[2] = tested on: transient bilateral common carotid artery occlusion (tBCCAO/R) global cerebral ischemia model; experiment: Y-maze passive avoidance after tBCCAO/R; assay type: in vivo, C57BL/6 mice; conditions: 7 mg/kg i.v. 3 h after tBCCAO; tested 24 h after tBCCAO/R; vs untreated group
Protocol: (§2) C57BL/6 mice were subjected to two times 20 minutes bilateral common carotid arteries occlusion followed by reperfusion (tBCCAO/R) and treated with 7 mg/2 ml/kg RvTAT-PKD-S205 or some volume Saline via tail vein administered after 3 hours of the tBCCAO. After 24 hours of reperfusion, the ischemic mice were estimated by the Y maze Passive Avoidance task, as well as the MDA content in hippocampus and brain water content. […] FIG. 6C show the MDA content in hippocampus collected from Ischemic or sham mice after 24 hours of reperfusion subject to MDA ELISA assay. […] Data were shown as mean±SEM, (n=11 in each group), *p<0.05, **p<0.01 compared to Saline control group using Student t test. Animal treatments were randomized, and all procedures were performed blinded to treatment. […]
The day before surgery, the researchers train the mice to avoid electric shocks caused by light sources, which can minimize the effects of odor. […] Learning and memory skill was quantified by Y maze passive avoidance task 24 hours after tBCCAO/R modeling (FIG. 6A).
After 24 hrs BCCAO/R mice were acclimatized to the testing room before conducting the Y-maze and allowed to familiarize themselves with the maze. […] A current stimulation of pre-determined intensity (0.05-0.8 mA) will be administered. […] The number to escape to the safe zone was recorded; any escapes to non-safe zones were regarded as erroneous. […]

[3] = tested on: transient bilateral common carotid artery occlusion (tBCCAO/R) global cerebral ischemia model; experiment: Brain edema (brain water content) after tBCCAO/R; assay type: in vivo, C57BL/6 mice; conditions: 7 mg/kg i.v. 3 h after tBCCAO; 24 h reperfusion; vs saline controls
Protocol: C57BL/6 mice were subjected to two times 20 minutes bilateral common carotid arteries occlusion followed by reperfusion (tBCCAO/R) and treated with 7 mg/2 ml/kg RvTAT-PKD-S205 or some volume Saline via tail vein administered after 3 hours of the tBCCAO. After 24 hours of reperfusion, the ischemic mice were estimated by the Y maze Passive Avoidance task, as well as the MDA content in hippocampus and brain water content. […] FIG. 6C show the MDA content in hippocampus collected from Ischemic or sham mice after 24 hours of reperfusion subject to MDA ELISA assay. […] Data were shown as mean±SEM, (n=11 in each group), *p<0.05, **p<0.01 compared to Saline control group using Student t test. Animal treatments were randomized, and all procedures were performed blinded to treatment.
Modeling: C57 […] male mice weighing 20-30 g (6-7 weeks old) were allowed free access to food and water and were housed under constant environmental conditions (a 12/12 h light/dark cycle). […]
Mice were assessed for brain edema by the dry/wet weight measurement after 24 hrs BCCAO/R. Wet weight was determined immediately after dissection of the brain, then the tissue was dried at 55° C. to a constant weight over 24 hours to determine the dry weight. The percentage of brain water content was calculated as (wet weight−dry weight)/wet weight*100.

[4] = tested on: transient middle cerebral artery occlusion/reperfusion (MCAO/R) stroke model; experiment: Transient MCAO/R stroke model, infarct volume by TTC staining; assay type: in vivo, Sprague-Dawley rats; conditions: 3.5 mg/kg single i.v. bolus 4.5 h after ischemia onset; 90 min MCAO; TTC about 24 h; vs saline controls
[5] = tested on: MDA content in hippocampus; experiment: Malondialdehyde (MDA) assay after tBCCAO/R; assay type: in vivo, C57BL/6 mice; conditions: 7 mg/kg i.v. 3 h after tBCCAO; 24 h reperfusion; vs saline
Protocol: as §2
MDA is one of the important products of lipid peroxidation and the extent of lipid oxidation was determined by measuring MDA levels. […] The supernatants were collected after the lysates were centrifuged at 3,500 r/min for 10 min at 4° C., and MDA content was determined using MDA TCA kit (Nanjing Jiancheng Bioengineering Institute, Nanjing, China) following the manufacturer's protocol. The results were evaluated from the standard curve and calculated as nM/mg of tissue.

[6] = tested on: transient middle cerebral artery occlusion/reperfusion (MCAO/R) stroke model; experiment: Rotarod motor performance after MCAO/R; assay type: in vivo, Sprague-Dawley rats; conditions: 3.5 mg/kg i.v. 4.5 h after ischemia onset; for Holding time on rod increase: vs untreated control group

In the case of “RRRQRRKKRGNLSRRLKVTGDL [RvTAT-BECN1-T199, Fusion peptide: RvTAT at N-terminus of BECN1-T199]”, the “reduced HT22 cell death” value (HT22 cells) is reported as roughly 21%.
In the case of “RRRQRRKKRGKKRPQRRYSNVP [RvTAT-opMLC-S20]”, the “reduced HT22 cell death” value (HT22 cells) is reported as roughly 25% and the survival of neurons ([1]; OGD model) is reported as “did not significantly increase”.
With “RRRQRRKKRGSGVRRRRLSNVSL [RvTAT-PKD-S205, Fusion peptide: RvTAT cell penetrating peptide at N-terminus of PKD-S205]” the “increase in memory index (Y-maze passive avoidance)” value [2] was 30%, the “brain water content reduced” value [3] was 8.5% and the “reduced the volume of total cerebral infarction” value [4] was “approximately 60%”. For the same sequence, the reduced cell death (HT22 cells; 100 nM peptide) was 11%, the reduced cell death (HT22 cells; 200 nM peptide) was 22% and the reduced cell death (HT22 cells; 1600 nM peptide) was 24%. For the same sequence, the most effective concentration (HT22 cells; glutamate induced apoptosis model) was 400 nM, the “decrease in MDA level” value [5] was 55% and the reducing neuronal death ([1]; 300 nM peptide added 30 min before OGD, 20 h reperfusion, MTT) was 12%. For the same sequence, the “mean holding time, treated vs untreated” value ([6]; 3 days after tMCAO) was “no significant differences”, the “Holding time on rod increase” value ([6]; 5 days after tMCAO) was 70% and the “Holding time on rod increase” value ([6]; 7 days after tMCAO) was 75%.
In the case of “RRRQRRKKRGRKPERRRLKTTRL [RvTAT-ZIPK-T299, Fusion peptide: RvTAT at N-terminus of ZIPK-T299]”, the “reduced HT22 cell death” value (HT22 cells) is reported as “about 33%” and the “reducing cortical neuronal death” value ([1]; 1000 nM peptide added 30 min before OGD, 20 h reperfusion, MTT) is reported as 12%.
For “RRRQRRKKRGQIAKRRRLSSLRA [RvTAT-rSP6-S235, Fusion peptide: RvTAT at N-terminus of rSP6-S235]”, the “reduced HT22 cell death” value (HT22 cells) was “about 29%”.
